Data on 21 compounds can be found in patent US7601850B2, “Phenyl-thiophene type vitamin D receptor modulators” (Eli Lilly and Company, priority 2002, dated 2009).

Where two headings read alike, the source gives them in different places. Some results are limits rather than exact numbers.

The subject of one data set is rat osteocalcin promoter. Put plainly: OCN (osteocalcin) promoter assay in RG-15 (ROS 17/2.8) cells. Type of data set: cell-based. Put shortly: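 Rat osteoblast-like RG-15 (ROS 17/2.8) cells stably carry the rat osteocalcin promoter fused to luciferase. They were treated with compounds for 48 h in medium with 2% FBS and 0.01% DMSO. EC50 was derived from luciferase activity in cell lysates.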

Another data set relates to KERtr cells. Put plainly: Keratinocyte proliferation assay (BrdU incorporation). The format is cell-based. Particulars: KERtr human skin keratinocytes, 72 hr treatment, read-out: Kera. Prolif. IC50. On the procedure: 6. The keratinocyte proliferation assay is described in the “Assay” section of the Description, infra.
5. The Keratinocyte Proliferation Assay
This Assay is indicative for the treatment of psoriasis.
(5) The Keratinocyte Proliferation Assay:
KERtr cells (Human skin keratinocyte transformed with a retrovirus vector, obtained from ATCC) were plated in 96-well flat-bottomed plates (3000 cells/well) in 100 µl keratinocyte serum free medium supplemented with bovine pituitary extract in the absence of EGF (Life Technologies, Rockville, Md.) and incubated at 37° C. for two days. The cells were treated with various concentrations of VDR ligands (ten-fold serial dilution from 10,000 nM to 0.1 nM in triplicate), dissolved in 100 µl keratinocyte serum free medium supplemented with bovine pituitary extract in the absence of EGF and incubated at 37° C. for 72 hr. […] Potency values (IC50) values were determined as the concentration (nM) of compound that elicited a half-maximal response.

Data set [1] is described as follows: Mouse hypercalcemia assay (six day, serum ionized calcium). The format is in vivo. The procedure:
5. The Mouse Hypercalcemia test is described in the “Assay” section of the Description, infra.
4. The Mouse Hypercalcemia Assay
The Mouse Hypercalcemia Assay is a six day hypercalcemia test for toxicity and selectivity. Acceptable test results are levels greater than 300 μg/kg/day. Preferred assay results are levels greater than 1000 μg/kg/day.
(4) Materials and Method for The Mouse Hypercalcemia Assay:
Weanling, virus-antibody-free, five to six weeks old female DBF mice (Harlan, Indianapolis, Ind.) are used for all the studies. Animals are allowed to acclimate to local vivarium conditions for 2 days. […] The animals then are divided into groups with 4-5 mice per group. Different doses of test compounds prepared in 10% Ethanol and 90% sesame oil are administered to mice orally via gavage for 6 days. 1α-25(OH)2D3 0.5 μg/kg/d was also given to one group of mice as the positive control. Serum ionized calcium is evaluated at 6 hours after the last dosing under isoflurane anesthesia by Ciba-Corning Ca++/PH Analyzer, (Model 634, Chiron Diagnostics Corp., East Walpole, Mass.). Raw data of group differences is assessed by analysis of variance (ANOVA) using Fisher's protected least significant difference (PLSD) where the significance level was P<0.05.

Where [2] appears, read: Homo sapiens, Keratinocyte, 72 h.

Broadly, the EC50 is the midpoint of the concentration-response curve. What is called IC50 is the point on the concentration scale where inhibition reaches its midpoint. As for `CCC(CC)(c1ccc(OCC(=O)O)c(C)c1)c1cc(C)c(CCC(O)C(C)(C)C)s1` (single isomer, unassigned) [Ex. 33B, 3′-[5-(3-hydroxy-4,4-dimethylpentyl)-4-methylthiophen-2-yl]-3′-[4-(carboxylmethoxy)-3-methylphenyl]pentane], the EC50 with rat osteocalcin promoter is 7.55 nM. Also, the IC50 in the data set on KERtr cells (setting [2]) is 22.5 nM. Besides, the “Mouse Hypercal” value in data set [1] was 1000 µg/kg/day.
For `CCC(CC)(c1ccc(OCC(=O)Nc2nnn[nH]2)c(C)c1)c1cc(C)c(CCC(O)C(C)(C)C)s1` (single isomer, unassigned) [Ex. 35, 3′-[5-(3-hydroxy-4,4-dimethylpentyl)-4-methylthiophen-2-yl]-3′-[4-(tetrazol-5-yl-aminocarbonylmethoxy)-3-methylphenyl]pentane], in that order: 21.1 nM, 474 nM and 3000 µg/kg/day.
Take `CCC(CC)(c1ccc(OCC(O)C(C)(C)C)c(C)c1)c1cc(C)c(C(=O)NC(C)(C)C(=O)O)s1` (single isomer, unassigned) [Ex. 71, 2-[(5-{1-Ethyl-1-[4-(2-hydroxy-3,3-dimethyl-butoxy)-3-methyl-phenyl]-propyl}-3-methyl-thiophene-2-carbonyl)-amino]-2-methyl-propionic acid]: the concentration giving a half-maximal response (EC50) with rat osteocalcin promoter (Rattus norvegicus) was 3.5 nM. Besides, the IC50 with KERtr cells was found to be 29 nM. For the same compound, the “Mouse Hypercal” value in data set [1] is less than 300 µg/kg/day.
For the compound `CCC(CC)(c1ccc(OCC(O)C(C)(C)C)c(C)c1)c1cc(C)c(C(=O)NC(C)(C)C(=O)O)s1` (single isomer, unassigned) [Ex. 77, 2-[(5-{1-Ethyl-1-[4-(2-hydroxy-3,3-dimethyl-butoxy)-3-methyl-phenyl]-propyl}-3-methyl-thiophene-2-carbonyl)-amino]-2-methyl-propionic acid], the EC50 in the data set with rat osteocalcin promoter came to 2 nM. Also, in the data set on KERtr cells, the half-inhibitory concentration (IC50) is 194 nM. Also, the “Mouse Hypercal” value in data set [1] is 300 µg/kg/day.
Regarding `CCCc1cc(C(CC)(CC)c2ccc(C(=O)O)s2)ccc1OCC(O)C(C)(C)C` (single isomer, unassigned) [Ex. 94, 3′-[4-(2-hydroxy-3,3-dimethylbutoxy)-3-n-propylphenyl]-3′-[5-carboxy-thiophen-2-yl]pentane], the EC50 in the data set with rat osteocalcin promoter came to 4.05 nM. The “Mouse Hypercal” value in data set [1] was 1000 µg/kg/day.
Consider `CCC(CC)(c1ccc(OCC(O)C(C)(C)C)c(C(C)C)c1)c1ccc(C(=O)O)s1` (single isomer, unassigned) [Ex. 97, 3′-[4-(2-hydroxy-3,3-dimethylbutoxy)-3-i-propylphenyl]-3′-[5-carboxy-thiophen-2-yl]pentane], for which the EC50 with rat osteocalcin promoter (Rattus norvegicus) is 22.4 nM. In data set [1], the “Mouse Hypercal” value was 3000 µg/kg/day.
Take `CCC(CC)(c1ccc(OCC(O)C(C)(C)C)c(C(C)C)c1)c1ccc(C(=O)O)s1` (single isomer, unassigned) [Ex. 98, 3′-[4-(2-hydroxy-3,3-dimethylbutoxy)-3-i-propylphenyl]-3′-[5-carboxy-thiophen-2-yl]pentane]: the EC50 in the data set on rat osteocalcin promoter is 15.8 nM. Also, the “Mouse Hypercal” value in data set [1] is 4000 µg/kg/day.
For `CCc1cc(C(CC)(CC)c2ccc(C(=O)O)s2)ccc1OCC(O)C(C)(C)C` (single isomer, unassigned) [Ex. 100, 3′-[4-(2-hydroxy-3,3-dimethylbutoxy)-3-ethylphenyl]-3′-[5-carboxy-thiophen-2-yl]pentane], the EC50 in the data set with rat osteocalcin promoter stood at 5.63 nM. In addition, the 50% inhibitory concentration (IC50) in the data set with KERtr cells (setting [2]) is 215 nM. For the same compound, the “Mouse Hypercal” value in data set [1] is 3000 µg/kg/day.
For `CCC(CC)(c1ccc(OCC(C)(O)C(C)(C)C)c(C)c1)c1ccc(C(=O)O)s1` (single isomer, unassigned) [Ex. 104, 3′-[4-(2-hydroxy-2,3,3-trimethylbutoxy)-3-methylphenyl]-3′-[5-carboxy-thiophen-2-yl]pentane], in the data set with rat osteocalcin promoter, the EC50 was 90.9 nM. For the same compound, the “Mouse Hypercal” value in data set [1] is 1000 µg/kg/day.
Consider `CCC(CC)(c1ccc(OCC(C)(O)C(C)(C)C)c(C)c1)c1ccc(C(=O)NCC(=O)O)s1` (single isomer, unassigned) [Ex. 106, 3′-[4-(2-hydroxy-2,3,3-trimethylbutoxy)-3-methylphenyl]-3′-[5-(carboxymethylamino)carbonyl-thiophen-2-yl]pentane], for which the EC50 with rat osteocalcin promoter (Rattus norvegicus) was found to be 8.05 nM. Also, the IC50 in the data set with KERtr cells (setting [2]) turned out to be 13 nM. In addition, in data set [1], the “Mouse Hypercal μg/Kg/d” value was “>=1000 μg/Kg/d”.
Consider `CCCc1cc(C(CC)(CC)c2ccc(C(=O)N[C@@H](C)C(=O)O)s2)ccc1OCC(C)(O)C(C)(C)C` (single isomer, unassigned) [Ex. 114, d-3′-[4-(2-hydroxy-2,3,3-trimethylbutoxy)-3-n-propylphenyl]-3′-[5-(carboxy-1-ethylamino)carbonyl-thiophen-2-yl]pentane], for which the EC50 in the data set with rat osteocalcin promoter (Rattus norvegicus) amounted to 0.28 nM. In addition, the “Mouse Hypercal” value in data set [1] is less than 300 µg/kg/day.
For `CCC(CC)(c1ccc(OCC(C)(O)C(C)(C)C)c(OC)c1)c1ccc(C(=O)NC(C)C(=O)O)s1` (single isomer, unassigned) [Ex. 116, d-3′-[4-(2-hydroxy-2,3,3-trimethylbutoxy)-3-methoxyphenyl]-3′-[5-(carboxy-1-ethylamino)carbonyl-thiophen-2-yl]pentane], in that order: 16.9 nM and more than 3000 µg/kg/day.
For the compound `CCC(CC)(c1ccc(OCC(=O)C(C)(C)C)c(C)c1)c1ccc(OCC(=O)C(C)(C)C)c(C)c1` [DD, reference compound], the 50% effective concentration (EC50) in the data set on rat osteocalcin promoter (Rattus norvegicus) was determined as 31.1 nM. In the data set with KERtr cells (setting [2]), the IC50 is 1060 nM. The “Mouse Hypercal” value in data set [1] is 1000 µg/kg/day.
Regarding `CCC(CC)(c1ccc(OCC(=O)C(C)(C)C)c(C)c1)c1cc(C)c(C(=O)N(C)OC)s1` [Ex. 45, 5-{1-[4-(3,3-dimethyl-2-oxo-butyoxy)-3-methyl-phenyl]-1-ethyl-propyl}-3methyl-thiophene-2-carboxylic acid methoxy-methyl-amide], the EC50 with rat osteocalcin promoter (Rattus norvegicus) is 41 nM. The “Mouse Hypercal” value in data set [1] is more than 1500 µg/kg/day.
For `CCC(CC)(c1ccc(OCC(=O)C(C)(C)C)c(C)c1)c1cc(C)c(C(=O)NCC(=O)O)s1` [Ex. 50], in that order: 21.6 nM and more than 3000 µg/kg/day.
Consider `CCC(CC)(c1ccc(OCC(O)C(C)(C)C)c(C)c1)c1cc(C)c(C(=O)N[C@@H](C)C(=O)O)s1` (stereo partly drawn) [Ex. 55, L-2-[(5-{1-Ethyl-1-[4-(2-hydroxy-3,3-dimethyl-butoxy)-3-methyl-phenyl]-propyl}-3-methyl-thiophene-2-carbonyl)-amino]-propionic acid], for which the EC50 in the data set on rat osteocalcin promoter came out at 29.6 nM. Moreover, the IC50 in the data set on KERtr cells amounted to 0.1 nM. Also, the “Mouse Hypercal” value in data set [1] was 1000 µg/kg/day.
Regarding `CCC(CC)(c1ccc(OCC(O)C(C)(C)C)c(C)c1)c1cc(C)c(C(=O)N[C@H](C)C(=O)O)s1` (stereo partly drawn) [Ex. 67, D-2-[(5-{1-Ethyl-1-[4-(2-hydroxy-3,3-dimethyl-butoxy)-3-methyl-phenyl]-propyl}-3-methyl-thiophene-2-carbonyl)-amino]-propionic acid], the EC50 in the data set on rat osteocalcin promoter was determined as 19.4 nM. For the same compound, in the data set with KERtr cells (setting [2]), the IC50 amounted to 197 nM. In addition, the “Mouse Hypercal” value in data set [1] is 3000 µg/kg/day.
Turning to `CCC(CC)(c1ccc(OCC(O)C(C)(C)C)c(C(C)C)c1)c1ccc(C(=O)O)s1` (stereo not shown) [Ex. 92, 3′-[4-(2-Hydroxy-3,3-dimethylbutoxy)-3-(1-methylethyl)phenyl]-3′-[5-carboxy-thiophen-2-yl]pentane], in the data set on rat osteocalcin promoter (Rattus norvegicus), the EC50 came to 75.3 nM. The “Mouse Hypercal” value in data set [1] was 1000 µg/kg/day.
As to `CCCc1cc(C(CC)(CC)c2ccc(C(=O)O)s2)ccc1OCC(O)C(C)(C)C` (stereo not shown) [Ex. 93, 3′-[4-(2-hydroxy-3,3-dimethylbutoxy)-3-n-propylphenyl]-3′-[5-carboxy-thiophen-2-yl]pentane], the EC50 in the data set with rat osteocalcin promoter (Rattus norvegicus) was found to be 38.5 nM. In the data set with KERtr cells (setting [2]), the IC50 was 178 nM. For the same compound, the “Mouse Hypercal” value in data set [1] is 3000 µg/kg/day.
For the compound `CCc1cc(C(CC)(CC)c2ccc(C(=O)O)s2)ccc1OCC(O)C(C)(C)C` (stereo not shown) [Ex. 99, 3′-[4-(2-hydroxy-3,3-dimethylbutoxy)-3-ethylphenyl]-3′-[5-carboxy-thiophen-2-yl]pentane], the EC50 in the data set with rat osteocalcin promoter (Rattus norvegicus) turned out to be 38.1 nM. The “Mouse Hypercal” value in data set [1] is more than 1000 µg/kg/day.
For the compound `CCC(CC)(c1ccc(OCC(C)(O)C(C)(C)C)c(C)c1)c1ccc(C(=O)O)s1` (stereo not shown) [Ex. 103, 3′-[4-(2-hydroxy-2,3,3-trimethylbutoxy)-3-methylphenyl]-3′-[5-carboxy-thiophen-2-yl]pentane], in the data set with rat osteocalcin promoter (Rattus norvegicus), the EC50 came to 102 nM. In addition, the “Mouse Hypercal” value in data set [1] is 3000 µg/kg/day.
